From patent US20190262294A1, “MODIFIER SYSTEM FOR COMPOSITIONS CONTAINING LAYERED DOUBLE HYDROXIDE” (OXFORD PHARMASCIENCE LIMITED, priority 2016, published 2019)

Experiment: solvent system method: total amount of ibuprofen released from the LDH
Type: physicochemical
Conditions: 200 mg dose of ibuprofen; 0.05M HCl 50 mL, 15 min

TOTAL AMOUNT OF IBUPROFEN RELEASED FROM THE LDH AS DETERMINED USING THE SOLVENT METHOD: 95%
SMILES: CC(C)Cc1ccc(C(C)C(=O)O)cc1 (stereo not shown) [Ibuprofen free acid]
